What was measured:
[1] = Non-sink dissolution of melt extruded compositions in simulated fed state intestinal fluid; type: physicochemical
Method: (§1) Solid dispersion formulations of Compound A in Eudragit® E PO (Formulation 2) and Kollidon® VA 64 (Formulation 3) were examined for dissolution behavior under non-sink conditions to assess oral bioavailability enhancement. Studies were conducted in three different media preparations, including: simulated gastric fluid, fed state simulated intestinal fluid and fasted state simulated intestinal fluid, which are presented in Table 2, Table 3 and Table 4 and FIG. 1, FIG. 2 and FIG. 3.

[2] = In vitro dissolution of HPMCAS dispersions (Table 7b, simulated gastric fluid); type: physicochemical; conditions: dose 200 μg/mL, initial ninety minutes
Method: (§2) Samples were weighed, dissolved in the buffer system, centrifuged, and the supernatant analyzed by HPLC at 10, 20, 40, and 90 minutes.
(§3) Tables 7a and 7b and FIG. 6 compares in vitro dissolution performance of Compound A:CAP SDD with that of crystalline of Compound A, HPMCAS-MG, and HPMCAS-HG.

[3] = Non-sink dissolution of melt extruded formulations in simulated gastric fluid; type: physicochemical
Method: as §1

[4] = In vitro dissolution test in NaTC/POPC in PBS (pH 6.5); type: physicochemical; conditions: theoretical Cmax 200 μg/mL
Method: as §2, §3

[5] = Non-sink dissolution of melt extruded compositions in simulated fasted state intestinal fluid; type: physicochemical
Method: as §1

[6] = In vivo systemic exposure in male beagle dogs, oral dosing; conditions: dog; for AUC(0-t): read-out: AUC0-24 hr
Method: In vivo testing was performed in male dogs to compare the systemic exposure of the 25% Compound A:CAP SDD (n=2) to that of the crystalline Compound A (n=2).

[7] = Phase 1 multiple ascending dose study, pharmacokinetics; type: in vivo; conditions: human, blood, po, repeat (5) daily doses, mean (±SD); for AUC(0-t): read-out: AUC0-24 h
Source text: (§4) This is a single center, phase 1, double-blind, placebo-controlled, multiple ascending dose study of Compound A given orally as a reformulated tablet (spray dried dispersion, or SDD) to otherwise healthy subjects with “pre-diabetes” (impaired fasting glucose, impaired glucose tolerance, or HbA1C≧5.8), or diet-controlled type 2 diabetes mellitus. The study was designed to evaluate the safety, tolerability, pharmacokinetics (PK), and proof-of-concept pharmacodynamics of Compound A. Each dosing cohort consisted of a screening period to assess eligibility, a dosing and observational period, and a follow-up period.
The screening visit was used to assess preliminary eligibility in potential subjects who provided informed consent. Final eligibility for study enrollment was determined after check-in to the clinic on Day −3, before randomization and dosing (on Day 1). Eleven eligible subjects who successfully completed screening were enrolled into the lowest dose cohort that was yet to be filled, and randomly assigned in a double-blind fashion to receive Compound A (n=8) or matched placebo (n=3). Up to 4 additional subjects were admitted to the clinic and available as back-ups in the event that 1 of the original 11 subjects was not dosed for any reason.
Each of these study cohorts was enrolled and completed independently, and in sequential fashion. After completion of the inpatient observational period at Day 8, blinded clinical safety and laboratory parameters (including PK) were assessed in a teleconference between the Principal Investigator, or Sub-Investigator, and the Metabolex Medical Monitor, after which subject dosing assignments could have been unblinded, if necessary, for determination of dose-limiting toxicities (DLTs). If two dose-limiting toxicities (DLTs) occurred within the same treatment cohort in subjects receiving active drug, no further dose escalation would have been allowed, and the maximum tolerated dose (MTD) would have been defined by the dose in the previous cohort. Additionally, dosing may have been halted at the discretion of the sponsor depending on observed Compound A concentrations and PK parameters from the preceding cohort in context of the safety and pharmacodynamic profile of the preceding cohorts.
On Day −2, following a 10 hour overnight fast, up to 15 eligible subjects underwent a baseline MMTT administered between 9:30 and 10:15 am, for the assessment of glucose and insulin response and of total GLP-1 and glucagon. On Day −1, following a 10 hour overnight fast, up to 15 eligible subjects also underwent a baseline OGTT (75 g) administered at the identical time of day as the MMTT, for assessment of the same markers. After the baseline OGTT assessments, 11 subjects were enrolled and randomized into the current dosing cohort. Up to 4 additional subjects remained overnight to be available as back-ups in the event that 1 of the original 11 subjects was, for any reason, not dosed. If more than 11 eligible subjects meet the cohort requirements, the excess subjects may have been included in the next cohort check-in, if within the 35 day screening window and they continued to meet eligibility. On Days 1 through 5, following a 10 hour overnight fast, subjects received daily doses of Compound A or placebo exactly 2 hours earlier than the start of the baseline MMTT, under fasted conditions. The inpatient period in clinic began on Day −2 and concluded on Day 8, following the final inpatient study procedure. The following assessments were made in temporal relationship to the administration of the study drug, administered at Day 1, Time 0, unless otherwise stated: • Pharmacokinetic Blood and Urine Sampling: • Subjects randomized to Compound A or placebo underwent single dose (Day 1) and repeat dose (Day 4) PK. Compound A was measured pre-dose (t −30 and 0 min) on Day 1 and at 20 and 40 minutes, and 1, 2, 3, 4, 6, 8, 12, and 24 hours post-dose. […]

[8] = system: subjects with pre-diabetes; experiment: Phase 1c study C, pharmacodynamics (MMTT/OGTT glucose excursion, fasting glucose); type: in vivo, human
Source text: as §4
On Day −2, following a 10 hour overnight fast, up to 15 eligible subjects underwent a baseline MMTT administered between 9:30 and 10:15 am, for the assessment of glucose and insulin response and of total GLP-1 and glucagon. On Day −1, following a 10 hour overnight fast, up to 15 eligible subjects also underwent a baseline OGTT (75 g) administered at the identical time of day as the MMTT, for assessment of the same markers. […] Compound A was measured pre-dose (t −30 and 0 min) on Day 1 and at 20 and 40 minutes, and 1, 2, 3, 4, 6, 8, 12, and 24 hours post-dose. Compound A was measured at identical timepoints associated with the Day 4 dose, but included additional measurements at 48 and 72 hours post-dose (Day 7). […]

[9] = SDD tablet 25 mg orally once daily
[10] = SDD tablet 100 mg orally once daily
[11] = SDD tablets 300 mg orally once daily
[12] = SDD tablets 600 mg orally once daily

Question: Which results are given for `CCc1cnc(N2CCC(c3nc(COc4ccc(-n5cnnn5)cc4)cs3)CC2)nc1` [Compound A Crystalline, 5-ethyl-2-{4-[4-(4-tetrazol-1-yl-phenoxymethyl)-thiazol-2-yl]-piperidin-1-yl}-pyrimidine]?
Answer: AUC0-2 hr [1]: 100.045 µg·h/mL; AUC0-4 hr [1]: 211.597 µg·h/mL; AUC0-24 hr [1]: 1148.003 µg·h/mL; Cmax [1]: 60182 ng/mL; Tmax [1]: 2 h; AUC90 [2]: 1000 µg·min/mL; Cmax90 [2]: 8000 ng/mL; AUC0-2 hr [3]: 321 µg·h/mL; AUC0-4 hr [3]: 727 µg·h/mL; AUC0-24 hr [3]: 4494 µg·h/mL; Cmax [3]: 247000 ng/mL; Tmax [3]: 2 h; AUC0-90 ([4]; NaTC/POPC in PBS pH 6.5, through 90 minutes): 950 µg·min/mL; Cmax (μg/mL Compound A) ([4]; NaTC/POPC in PBS pH 6.5, up to 90 min): 12 µg/mL; AUC0-2 hr [5]: 51.205 µg·h/mL; AUC0-4 hr [5]: 103.281 µg·h/mL; AUC0-24 hr [5]: 434.380 µg·h/mL; Cmax [5]: 29891 ng/mL; Tmax [5]: 0.50 h; Cmax ([6]; 10 mg/kg orally): 560 ng/mL; AUC(0-t) ([6]; 10 mg/kg orally): 3.9 µg·h/mL; Cmax ([6]; 200 mg/kg orally): 2000 ng/mL; AUC(0-t) ([6]; 200 mg/kg orally): 17 µg·h/mL

Question: For `CCc1cnc(N2CCC(c3nc(COc4ccc(-n5cnnn5)cc4)cs3)CC2)nc1` [Compound A, 5-ethyl-2-{4-[4-(4-tetrazol-1-yl-phenoxymethyl)-thiazol-2-yl]-piperidin-1-yl}-pyrimidine], which AUC(0-inf) [7, 9] is on record?
Answer: 6.5 µg·h/mL

Question: What about the Tmax [7, 9] of the same compound?
Answer: 5.4 h

Question: And the half-life [7, 9]?
Answer: 14 h

Question: And the AUC(0-t) [7, 9]?
Answer: 4.15 µg·h/mL

Question: What about the Cmax ([7]; SDD tablet 25 mg orally once daily, subjects with pre-diabetes) of the same compound?
Answer: 346 ng/mL

Question: What about the AUC(0-inf) [7, 10] of the same compound?
Answer: 24.6 µg·h/mL

Question: What about the Cmax [7, 10] of the same compound?
Answer: 1150 ng/mL

Question: And the Tmax [7, 10]?
Answer: 2.8 h

Question: And the half-life [7, 10]?
Answer: 18.3 h

Question: What about the AUC(0-t) [7, 10] of the same compound?
Answer: 13.3 µg·h/mL

Question: And the AUC(0-inf) [7, 11]?
Answer: 45 µg·h/mL

Question: And the Cmax [7, 11]?
Answer: 2330 ng/mL

Question: And the Tmax [7, 11]?
Answer: 2.2 h

Question: And the half-life [7, 11]?
Answer: 15.3 h

Question: And the AUC(0-t) [7, 11]?
Answer: 30 µg·h/mL

Question: What about the Cmax [7, 12] of the same compound?
Answer: 3560 ng/mL

Question: And the Tmax [7, 12]?
Answer: 3.3 h

Question: And the AUC(0-t) [7, 12]?
Answer: 57.9 µg·h/mL

Question: What about the “fasting plasma glucose (FPG) and glucose excursion following MMTT and OGTT” value ([8]; studies conducted to date) of the same compound?
Answer: consistently lowered

Question: And the “reduction in glucose, net of placebo” value ([8]; subsets of subjects with the greatest degree of glucose intolerance at baseline, pooled, any dose, Phase 1c (study C))?
Answer: up to 77%

Source: patent US9241924B2, “Compositions of 5-ethyl-2-{4-[4-(4-tetrazol-1-yl-phenoxymethyl)-thiazol-2-yl]-piperidin-1-yl}-pyrimidine” (CYMABAY THERAPEUTICS, INC., priority 2010, dated 2016)
